# What was measured:
# Human PKK = target: T1, Human PKK (Homo sapiens, UniProt P03952); experiment: Inhibition of PKK using an endpoint assay (human PKK); type: biochemical; details: fluorogenic substrate H-Pro-Phe-Arg-AMC, 1 h room temperature, method names human or rat PKK, table does not say which
# T1 construct: purchased Enzyme Research Laboratories
# In short: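 Endpoint fluorescence (ex 355 nm, em 460 nm) after stopping with 1 μM final PPACK II. Buffer: Tris 100 mM pH 7.8, NaCl 150 mM, BSA 0.1%, Tween20 0.05%, with 1% DMSO present; enzyme is human plasma kallikrein.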
# [1] = target: T2, PKK in kaolin activated human platelet poor plasma (Homo sapiens, UniProt P03952); experiment: Inhibition of PKK in kaolin activated human PPP; type: biochemical; details: 25-750 μg/mL kaolin, global fit, text b200 calls the values IC90;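 also: readout is the rate of fluorogenic substrate cleavage in rfu per min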
# T2 construct: Platelet poor plasma (PPP) obtained from human wholeblood; from tissue
# Description: Platelet poor plasma (PPP) obtained from human wholeblood, anticoagulated with Na-Citrate, is incubated with various concentrations of the test compound together with either 25, 75, 250, or 750 μg/mL kaolin in assay buffer for 20 min at 37° C. such that for each kaolin dose used a concentration response is obtained for the test compound.
# T1 sequence (P03952 20-390 limits assumed): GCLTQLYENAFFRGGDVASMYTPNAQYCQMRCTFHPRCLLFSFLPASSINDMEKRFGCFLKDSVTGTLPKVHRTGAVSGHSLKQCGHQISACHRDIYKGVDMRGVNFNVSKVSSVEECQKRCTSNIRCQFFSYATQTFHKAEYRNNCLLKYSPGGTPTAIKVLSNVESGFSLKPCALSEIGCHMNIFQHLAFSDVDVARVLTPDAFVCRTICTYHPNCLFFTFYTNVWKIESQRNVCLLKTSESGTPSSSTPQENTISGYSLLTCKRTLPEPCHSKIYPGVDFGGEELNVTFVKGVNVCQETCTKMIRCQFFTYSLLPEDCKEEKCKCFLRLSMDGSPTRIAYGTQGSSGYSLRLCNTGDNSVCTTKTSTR
# T1 sequence (P03952 391-638 limits assumed): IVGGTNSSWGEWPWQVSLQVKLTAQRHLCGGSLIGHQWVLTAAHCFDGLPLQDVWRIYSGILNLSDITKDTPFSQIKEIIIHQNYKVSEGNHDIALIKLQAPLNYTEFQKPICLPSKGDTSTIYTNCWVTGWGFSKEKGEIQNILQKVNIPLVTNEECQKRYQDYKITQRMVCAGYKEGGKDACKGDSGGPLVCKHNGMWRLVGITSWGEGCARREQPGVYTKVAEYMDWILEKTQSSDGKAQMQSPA
# T2 sequence (P03952 391-638 limits assumed): as above
# T2 sequence (P03952 20-390 limits assumed): as the sequence (P03952 20-390 limits assumed) above
Compound,IC50 (Human PKK),IC50 [1]
"Cn1cnc2c1CC[C@H]2NC(=O)c1cn(Cc2cnc(N3CC4CC4C3)nc2C(F)F)cn1 (stereo partly drawn) [Example 29, 1-[(2-{3-Azabicyclo[3.1.0]hexan-3-yl}-4-(difluoromethyl)-pyrimidin-5-yl)methyl]-N-[(4R)-1-methyl-1H,4H,5H,6H-cyclopenta[d]imidazol-4-yl]-1H-imidazole-4-carboxamide]",2.6 nM,336 nM
"Cn1cnc2c1CC[C@H]2NC(=O)c1cn(Cc2ccc(N3CC4CC4C3)nc2C(F)F)nn1 (stereo partly drawn) [Example 30, 1-[(6-{3-Azabicyclo[3.1.0]hexan-3-yl}-2-(difluoromethyl)-pyridin-3-yl)methyl]-N-[(4R)-1-methyl-1H,4H,5H,6H-cyclo-penta[d]imidazol-4-yl]-1H-1,2,3-triazole-4-carboxamide]",0.9 nM,334 nM
"CCCc1nc(N2CC3CC3C2)ccc1Cn1cnc(C(=O)N[C@@H]2CCc3c2ncn3C)c1 (stereo partly drawn) [Example 31, 1-[(6-{3-Azabicyclo[3.1.0]hexan-3-yl}-2-propylpyridin-3-yl)methyl]-N-[(4R)-1-methyl-1H,4H,5H,6H-cyclopenta[d]imidazol-4-yl]-1H-imidazole-4-carboxamide]",5.3 nM,973 nM
"Cn1cnc2c1CC[C@H]2NC(=O)c1cn(Cc2ccc(N3CC4C(C3)C4(F)F)nc2)nn1 (stereo partly drawn) [Example 33, 1-[(6-{6,6-Difluoro-3-azabicyclo[3.1.0]hexan-3-yl}pyridin-3-yl)methyl]-N-[(4R)-1-methyl-1H,4H,5H,6H-cyclo-penta[d]imidazol-4-yl]-1H-1,2,3-triazole-4-carboxamide]",2.5 nM,265 nM
"Cn1cnc2c1CC[C@H]2NC(=O)c1cn(Cc2ccc(N3CC4CC4C3)nc2Br)nn1 (stereo partly drawn) [Example 34, 1-[(6-{3-Azabicyclo[3.1.0]hexan-3-yl}-2-bromopyridin-3-yl)methyl]-N-[(4R)-1-methyl-1H,4H,5H,6H-cyclopenta-[d]imidazol-4-yl]-1H-1,2,3-triazole-4-carboxamide]",0.9 nM,1190 nM
"CCc1nc(N2CC3(CC3)C2)ccc1Cn1cnc(C(=O)N[C@@H]2CCc3c2ncn3C)c1 [Example 37, 1-[(6-{5-Azaspiro[2.3]hexan-5-yl}-2-ethylpyridin-3-yl)methyl]-N-[(4R)-1-methyl-1H,4H,5H,6H-cyclopenta[d]imidazol-4-yl]-1H-imidazole-4-carboxamide]",0.9 nM,125 nM
"Cn1cnc2c1CC[C@H]2NC(=O)c1cn(Cc2ccc(N3CC4CC4C3)nc2Br)cn1 (stereo partly drawn) [Example 39, 1-[(6-{3-Azabicyclo[3.1.0]hexan-3-yl}-2-bromopyridin-3-yl)methyl]-N-[(4R)-1-methyl-1H,4H,5H,6H-cyclopenta[d]imidazol-4-yl]-1H-imidazole-4-carboxamide]",0.7 nM,380 nM
"Cn1cnc2c1CC[C@H]2NC(=O)c1cnn(Cc2ccc(N3CC4CC4C3)nc2Br)c1 (stereo partly drawn) [Example 40, 1-[(6-{3-Azabicyclo[3.1.0]hexan-3-yl}-2-bromopyridin-3-yl)methyl]-N-[(4R)-1-methyl-1H,4H,5H,6H-cyclopenta[d]imidazol-4-yl]-1H-pyrazole-4-carboxamide]",1.2 nM,543 nM
"Cn1cnc2c1CC[C@H]2NC(=O)c1cnn(Cc2ccc(N3CC4CC4C3)nc2C(F)F)c1 (stereo partly drawn) [Example 43, 1-[(6-{3-Azabicyclo[3.1.0]hexan-3-yl}-2-(difluoromethyl)-pyridin-3-yl)methyl]-N-[(4R)-1-methyl-1H,4H,5H,6H-cyclopenta[d]imidazol-4-yl]-1H-pyrazole-4-carboxamide]",0.9 nM,308 nM
"Cn1cnc2c1CC[C@H]2NC(=O)c1cnn(Cc2ccc(N3CC4C(C3)C4(F)F)nc2Cl)c1 (stereo partly drawn) [Example 44, 1-[(2-Chloro-6-{6,6-difluoro-3-azabicyclo-[3.1.0]hexan-3-yl}pyridin-3-yl)methyl]-N-[(4R)-1-methyl-1H,4H,5H,6H-cyclopenta[d]imidazol-4-yl]-1H-pyrazole-4-carboxamide]",1.8 nM,444 nM
"Cn1cnc2c1CC[C@H]2NC(=O)c1cnn(Cc2ccc(N3CC4C(C3)C4(F)F)nc2C(F)F)c1 (stereo partly drawn) [Example 46, 1-[(6-{6,6-Difluoro-3-azabicyclo[3.1.0]hexan-3-yl}-2-(difluoromethyl)pyridin-3-yl)methyl]-N-[(4R)-1-methyl-1H,4H,5H,6H-cyclopenta-[d]imidazol-4-yl]-1H-pyrazole-4-carboxamide]",1 nM,162 nM
"Cn1cnc2c1CC[C@H]2NC(=O)c1cnn(Cc2ccc(N3CC4(CC4)C3)nc2Cl)c1 [Example 56, 1-[(6-{5-Azaspiro[2.3]hexan-5-yl}-2-chloropyridin-3-yl)methyl]-N-[(4R)-1-methyl-1H,4H,5H,6H-cyclopenta[d]imidazol-4-yl]-1H-pyrazole-4-carboxamide]",1.8 nM,586 nM

# Second part, the molecule after the results:
IC50 (Human PKK),IC50 [1],Compound
4.9 nM,343 nM,"Cn1cnc2c1CC[C@H]2NC(=O)c1cn(Cc2ccc(N3CC4(CC4)C3)nc2)nn1 [Example 26, 1-[(6-{5-Azaspiro[2.3]hexan-5-yl}pyridin-3-yl)-methyl]-N-[(4R)-1-methyl-1H,4H,5H,6H-cyclopenta[d]imidazol-4-yl]-1H-1,2,3-triazole-4-carboxamide]"
0.6 nM,184 nM,"Cn1cnc2c1CC[C@H]2NC(=O)c1cn(Cc2ccc(N3CC4C(C3)C4(F)F)nc2Br)cn1 (stereo partly drawn) [Example 28, 1-[(2-Bromo-6-{6,6-difluoro-3-azabicyclo-[3.1.0]hexan-3-yl}pyridin-3-yl)methyl]-N-[(4R)-1-methyl-1H,4H,5H,6H-cyclopenta[d]imidazol-4-yl]-1H-imidazole-4-carboxamide]"
1.1 nM,548 nM,"Cn1cnc2c1CC[C@H]2NC(=O)c1cn(Cc2ccc(N3CC4CC4C3)nc2Cl)nn1 (stereo partly drawn) [Example 32, 1-[(6-{3-Azabicyclo[3.1.0]hexan-3-yl}-2-chloropyridin-3-yl)methyl]-N-[(4R)-1-methyl-1H,4H,5H,6H-cyclopenta-[d]imidazol-4-yl]-1H-1,2,3-triazole-4-carboxamide]"
2.2 nM,259 nM,"Cn1cnc2c1CC[C@H]2NC(=O)c1cnn(Cc2ccc(N3CC4CC4C3)c(C#N)n2)c1 (stereo partly drawn) [Example 35, 1-[(5-{3-Azabicyclo[3.1.0]hexan-3-yl}-6-cyanopyridin-2-yl)methyl]-N-[(4R)-1-methyl-1H,4H,5H,6H-cyclopenta[d]imidazol-4-yl]-1H-pyrazole-4-carboxamide]"
3.4 nM,488 nM,"Cn1cnc2c1CC[C@H]2NC(=O)c1cnn(Cc2ccc(N3CC4C(C3)C4(F)F)cn2)c1 (stereo partly drawn) [Example 41, 1-[(5-{6,6-Difluoro-3-azabicyclo[3.1.0]hexan-3-yl}pyridin-2-yl)methyl]-N-[(4R)-1-methyl-1H,4H,5H,6H-cyclopenta[d]imidazol-4-yl]-1H-pyrazole-4-carboxamide]"
0.6 nM,195 nM,"Cn1cnc2c1CC[C@H]2NC(=O)c1cnn(Cc2ccc(N3CC4CC4C3)nc2C2(C#N)CC2)c1 (stereo partly drawn) [Example 42, 1-[(6-{3-Azabicyclo[3.1.0]hexan-3-yl}-2-(1-cyanocyclopro-pyl)-pyridin-3-yl)methyl]-N-[(4R)-1-methyl-1H,4H,5H,6H-cyclopenta[d]imidazol-4-yl]-1H-pyrazole-4-carboxamide]"
0.7 nM,151 nM,"Cn1cnc2c1CC[C@H]2NC(=O)c1cn(Cc2ccc(N3CC4C(C3)C4(F)F)nc2C(F)F)cn1 (stereo partly drawn) [Example 45, 1-[(6-{6,6-Difluoro-3-azabicyclo[3.1.0]hexan-3-yl}-2-(difluoromethyl)pyridin-3-yl)methyl]-N-[(4R)-1-methyl-1H,4H,5H,6H-cyclopenta-[d]imidazol-4-yl]-1H-imidazole-4-carboxamide]"
2.8 nM,612 nM,"Cn1cnc2c1CC[C@H]2NC(=O)c1cnn(Cc2ccc(N3CC4CC4C3)nc2C(F)F)c1 (stereo partly drawn) [Example 48, 1-[(6-{3-Azabicyclo[3.1.0]hexan-3-yl}-2-(difluoromethyl)-pyridin-3-yl)methyl]-N-[(4R)-1-methyl-1H,4H,5H,6H-cyclopenta[d]imidazol-4-yl]-1H-pyrazole-4-carboxamide]"
1.7 nM,110 nM,"Cn1cnc2c1CC[C@H]2NC(=O)c1cn(Cc2ccc(N3CC4C(C3)C4(F)F)nc2CO)nn1 (stereo partly drawn) [Example 50, 1-[(6-{6,6-Difluoro-3-azabicyclo[3.1.0]hexan-3-yl}-2-(hydroxymethyl)pyridin-3-yl)methyl]-N-[(4R)-1-methyl-1H,4H,5H,6H-cyclopenta[d]-imidazol-4-yl]-1H-1,2,3-triazole-4-carboxamide]"
2 nM,203 nM,"Cn1cnc2c1CC[C@H]2NC(=O)c1cn(Cc2ccc(N3CC4C(C3)C4(F)F)cn2)cn1 (stereo partly drawn) [Example 53, 1-[(5-{6,6-Difluoro-3-azabicyclo[3.1.0]hexan-3-yl}pyridin-2-yl)methyl]-N-[(4R)-1-methyl-1H,4H,5H,6H-cyclopenta[d]imidazol-4-yl]-1H-imidazole-4-carboxamide]"
0.7 nM,109 nM,"Cn1cnc2c1CC[C@H]2NC(=O)c1cnn(Cc2ccc(N3CC4CC4C3)nc2CCCO)c1 (stereo partly drawn) [Example 54, 1-[(6-{3-Azabicyclo[3.1.0]hexan-3-yl}-2-(3-hydroxypropyl)-pyridin-3-yl)methyl]-N-[(4R)-1-methyl-1H,4H,5H,6H-cyclopenta[d]imidazol-4-yl]-1H-pyrazole-4-carboxamide]"
2.3 nM,250 nM,"COCc1nc(N2CC3C(C2)C3(F)F)ccc1Cn1cc(C(=O)N[C@@H]2CCc3c2ncn3C)nn1 (stereo partly drawn) [Example 55, 1-[(6-{6,6-Difluoro-3-azabicyclo[3.1.0]hexan-3-yl}-2-(methoxymethyl)pyridin-3-yl)methyl]-N-[(4R)-1-methyl-1H,4H,5H,6H-cyclopenta[d]-imidazol-4-yl]-1H-1,2,3-triazole-4-carboxamide]"
